“And” between values parts separate entries of the source, which are not always exact repeats. Identical values can stand only once. Like-named read-outs stand apart in the source and are kept apart here. Values belong to the compound of their own block, whether it stands above or below them.
Assays:
[1] = target: GluK2b(Q) and GluK3 (Rattus norvegicus, UniProt P42264); experiment: Glutamate-activated currents in HEK293 cells cotransfected with GluK2b; type: cell-based; conditions: 1 μM UBP310; n = 6
Sequence of GluK2b(Q) and GluK3 (P42264 32-919): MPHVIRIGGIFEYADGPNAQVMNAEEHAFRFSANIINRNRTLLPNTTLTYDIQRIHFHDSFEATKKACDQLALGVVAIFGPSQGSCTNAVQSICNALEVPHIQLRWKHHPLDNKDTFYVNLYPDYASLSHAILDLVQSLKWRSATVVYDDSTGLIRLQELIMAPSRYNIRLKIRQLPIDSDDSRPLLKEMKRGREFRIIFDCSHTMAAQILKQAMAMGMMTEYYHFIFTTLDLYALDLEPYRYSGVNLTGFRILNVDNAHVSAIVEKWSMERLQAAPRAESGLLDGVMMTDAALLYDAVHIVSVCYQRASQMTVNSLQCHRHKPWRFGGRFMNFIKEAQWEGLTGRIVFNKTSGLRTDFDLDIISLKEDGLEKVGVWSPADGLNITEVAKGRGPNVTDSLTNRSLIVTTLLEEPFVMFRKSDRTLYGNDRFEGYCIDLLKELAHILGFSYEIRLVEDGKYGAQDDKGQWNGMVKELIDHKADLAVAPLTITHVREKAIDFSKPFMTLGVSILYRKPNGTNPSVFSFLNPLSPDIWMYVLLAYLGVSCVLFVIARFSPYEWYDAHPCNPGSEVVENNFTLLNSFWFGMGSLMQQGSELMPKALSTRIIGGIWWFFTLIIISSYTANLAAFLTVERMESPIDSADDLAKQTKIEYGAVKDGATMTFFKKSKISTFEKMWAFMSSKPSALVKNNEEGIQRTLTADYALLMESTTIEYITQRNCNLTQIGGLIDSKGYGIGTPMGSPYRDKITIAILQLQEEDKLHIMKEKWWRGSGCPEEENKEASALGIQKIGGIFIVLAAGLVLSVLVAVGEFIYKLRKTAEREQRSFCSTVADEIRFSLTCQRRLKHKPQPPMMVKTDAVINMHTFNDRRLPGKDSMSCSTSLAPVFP

[2] = target: T1, GluK3 (Rattus norvegicus, UniProt P42264); type: cell-based; conditions: for effect of zinc on GluK3 currents: 100 μM zinc
T1 sequence (P42264 32-919): as above

[3] = target: T2, GluK2 (Rattus norvegicus, UniProt P42260); type: cell-based; conditions: 10 mM glutamate
[4] = target: heteromeric GluK2/GluK3 receptors (Rattus norvegicus, UniProt P42260+P42264); experiment: Glutamate currents of heteromeric GluK2b; type: cell-based
[5] = target: T1, GluK3; type: cell-based
[6] = target: T2, GluK2; type: cell-based; conditions: 100 μM zinc; control 3.4 ± 0.1 ms; n = 5; p = 0.20
[7] = target: GluK3(ERLK) (Rattus norvegicus, UniProt P42264, I781L/K527E/K698R/Q785K); experiment: Glutamate currents of desensitization mutant GluK3; type: cell-based; conditions: 100 μM zinc
Sequence of GluK3(ERLK) (P42264 32-919 K527E/K698R/I781L/Q785K): as the sequence (P42264 32-919) above, with K496E, K667R, I750L, Q754K counted along it

[8] = target: GluK3(H492C, L753C) (Rattus norvegicus, UniProt P42264, H523C/L784C); experiment: Glutamate currents of desensitization mutant GluK3; type: cell-based; conditions: 100 μM zinc; 10 mM glutamate, 100 ms
Sequence of GluK3(H492C, L753C) (P42264 32-919 H523C/L784C): as the sequence (P42264 32-919) above, with H492C, L753C counted along it

[9] = tested on: extracellular domain of GluK3 and the transmembrane and intracellular segments of GluK2; experiment: Whole-cell glutamate currents of chimeric receptor; type: cell-based, rat; conditions: 100 μM zinc; 10 mM glutamate, 100 ms; n = 5
[10] = tested on: transmembrane and intracellular segments of GluK3 and the extracellular domain of GluK2; experiment: Whole-cell glutamate currents of chimeric receptor; type: cell-based, rat; conditions: 100 μM zinc; 10 mM glutamate, 100 ms; n = 4
[11] = target: GluK3 subunits deleted of their ATD (Rattus norvegicus, UniProt P42264); experiment: Whole-cell glutamate currents of ATD-deleted receptor; type: cell-based; conditions: 100 μM zinc; 10 mM glutamate, 100 ms; n = 5
Sequence of GluK3 subunits deleted of their ATD (P42264 376-919, stated change not applied): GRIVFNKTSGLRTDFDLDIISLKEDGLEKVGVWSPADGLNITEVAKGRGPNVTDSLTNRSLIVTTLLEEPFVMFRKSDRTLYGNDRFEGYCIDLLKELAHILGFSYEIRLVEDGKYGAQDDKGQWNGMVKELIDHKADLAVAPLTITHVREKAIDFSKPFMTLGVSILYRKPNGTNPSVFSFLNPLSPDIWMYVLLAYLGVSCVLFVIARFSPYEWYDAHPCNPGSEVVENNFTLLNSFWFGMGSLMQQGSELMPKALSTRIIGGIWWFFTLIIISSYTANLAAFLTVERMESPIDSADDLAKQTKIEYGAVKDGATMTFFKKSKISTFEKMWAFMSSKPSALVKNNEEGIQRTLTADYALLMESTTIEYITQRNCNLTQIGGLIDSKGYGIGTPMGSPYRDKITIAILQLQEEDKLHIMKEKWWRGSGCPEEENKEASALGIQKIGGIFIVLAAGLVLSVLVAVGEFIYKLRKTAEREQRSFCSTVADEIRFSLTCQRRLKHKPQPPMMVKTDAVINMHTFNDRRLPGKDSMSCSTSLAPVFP

[12] = target: GluK2 receptors where the ATD was excised (Rattus norvegicus, UniProt P42260); experiment: as above; type: cell-based; conditions: 100 μM zinc; 10 mM glutamate, 100 ms; n = 4
[13] = target: GluK3/K2S2 (Rattus norvegicus, UniProt P42260+P42264, A594P/A717V/A732S/D593N/D790G/E602D/E705D/F704Y/G600D/I638V/I746V/I767V/I794M/I818V/I844L/INS713R/K688E/K714R/K820N/L736F/L837F/M618V/N721S/N810S/P715Q/S620A/S803N/T729V/V569I/Y745F); experiment: Whole-cell glutamate currents of S2 chimera; type: cell-based; conditions: 100 μM zinc; 10 mM glutamate, 100 ms; n = 5
[14] = tested on: GluK2/K3S2; experiment: Whole-cell glutamate currents of S2 chimera; type: cell-based, rat; conditions: 100 μM zinc; 10 mM glutamate, 100 ms; n = 5
[15] = target: GluK2(G758D) (Rattus norvegicus, UniProt P42260, G789D); experiment: Glutamate currents of point mutant, outside-out patches; type: cell-based; conditions: 100 μM zinc; 10 mM glutamate; n = 6
[16] = target: GluK3(D759G) (Rattus norvegicus, UniProt P42264, D790G); experiment: as above; type: cell-based; conditions: 100 μM zinc; 10 mM glutamate; n = 5
Sequence of GluK3(D759G) (P42264 32-919 D790G): as the sequence (P42264 32-919) above, with D759G counted along it

[17] = target: GluK3(H762A) (Rattus norvegicus, UniProt P42264, H793A); experiment: as above; type: cell-based; conditions: 100 μM zinc; 10 mM glutamate; n = 5
Sequence of GluK3(H762A) (P42264 32-919 H793A): as the sequence (P42264 32-919) above, with H762A counted along it

[18] = target: GluK3(H492Y) (Rattus norvegicus, UniProt P42264, H523Y); experiment: Glutamate currents of point mutant; type: cell-based; conditions: 100 μM zinc; 10 mM glutamate
Sequence of GluK3(H492Y) (P42264 32-919 H523Y): as the sequence (P42264 32-919) above, with H492Y counted along it

[19] = target: GluK3(H492A) (Rattus norvegicus, UniProt P42264, H523A); experiment: Glutamate currents of point mutant; type: cell-based; conditions: 100 μM zinc; 10 mM glutamate
Sequence of GluK3(H492A) (P42264 32-919 H523A): as the sequence (P42264 32-919) above, with H492A counted along it

[20] = target: GluK2(Y490H) (Rattus norvegicus, UniProt P42260, Y521H); experiment: Glutamate currents of point mutant; type: cell-based; conditions: 100 μM zinc; 10 mM glutamate
[21] = target: GluK3(D730A) (Rattus norvegicus, UniProt P42264, D761A); experiment: Glutamate currents of point mutant, outside-out patches; type: cell-based; conditions: 100 μM zinc; 10 mM glutamate; n = 6
Sequence of GluK3(D730A) (P42264 32-919 D761A): as the sequence (P42264 32-919) above, with D730A counted along it

[22] = target: GluK3(D730N) (Rattus norvegicus, UniProt P42264, D761N); experiment: as above; type: cell-based; conditions: 100 μM zinc; 10 mM glutamate
Sequence of GluK3(D730N) (P42264 32-919 D761N): as the sequence (P42264 32-919) above, with D730N counted along it

[23] = target: GluK2b and GluK3(D730A) (Rattus norvegicus, UniProt P42260+P42264, D761A); experiment: Glutamate currents of heteromeric mutant receptors, 1 μM UBP310 present; type: cell-based; conditions: 100 μM zinc, 10 mM glutamate
[24] = target: GluK2b(D729A) and GluK3 (Rattus norvegicus, UniProt P42260+P42264, D760A); experiment: Glutamate currents of heteromeric mutant receptors; type: cell-based; conditions: 10 mM glutamate
[25] = tested on: KARs containing GluK4 or GluK5 subunits; conditions: read-out: IC50 of zinc inhibition; ref Mott et al., 2008; cited from earlier work
[26] = tested on: GluK1-GluK2; conditions: read-out: IC50 of zinc inhibition; ref Mott et al., 2008; cited from earlier work
[27] = tested on: GluN1/GluN2A receptors; conditions: ref Paoletti et al., 1997; cited from earlier work
[28] = tested on: GluN1/GluN2B; conditions: ref Paoletti et al., 1997; cited from earlier work
[29] = combined potentiation/inhibition Hill equations

inhibition of glutamate-activated currents [1]: 55%
Compound: Cc1cn(C[C@H](N)C(=O)O)c(=O)n(Cc2ccsc2C(=O)O)c1=O [UBP310]

Compound: [Cl-].[Cl-].[Zn+2] [zinc, ZnCl2]
current amplitude with zinc, % of control amplitude ([2]; 100 μM zinc preapplied, 10 mM glutamate, 100 ms, whole-cell, n = 17): 193% ± 38%
effect of zinc on GluK3 currents ([2]; pH 6.8): inhibited
effect of zinc on GluK3 currents ([2]; pH 8.3): potentiated
zinc concentrations that clearly inhibit currents ([2]; WT GluK3 receptors): above 300 μM
maximal potentiation of GluK3 currents by zinc [2, 29]: 475% ± 47%
nH of zinc potentiation of GluK3 currents [2, 29]: 1.82 ± 0.95
zinc concentrations that potentiate glutamate currents ([2]; homomeric and heteromeric KARs containing GluK3): 10 to 100 µM
effect of zinc on GluK3-mediated currents ([2]; simultaneous application of zinc and glutamate, data not shown): does not potentiate
Hill coefficient (nH) of zinc inhibition of GluK2 currents [3]: 1.1 and 1.1 ± 0.1
UBP310-resistant current with zinc, % of control ([4]; 100 μM zinc, 10 mM glutamate, 1 μM UBP310, n = 18): 157% ± 7%
maximal potentiation by zinc, % of control ([4]; 10 mM glutamate, Hill fit): 286%
nH of zinc potentiation of GluK2/GluK3 currents ([4]; 10 mM glutamate, Hill fit): 0.6 and 0.6 ± 0.4
inhibition of GluK2/GluK3 currents by high zinc ([4]; zinc concentrations up to 1 mM): no inhibition
τdes (current decay) with zinc ([5]; 100 μM zinc, 10 mM glutamate, 100 ms, control 5.0 ± 0.2 ms, n = 8): 9.8 ± 0.4 ms
time for half-recovery from desensitization with zinc ([5]; 100 μM zinc, absence of zinc 902 ± 1.1 ms, n = 5): 460 ± 1.2 ms
deactivation kinetics with zinc ([5]; 1 ms pulses of 10 mM glutamate, control 1.5 ± 0.05 ms, n = 4): 2.3 ± 0.1 ms
current amplitude with zinc, % of control amplitude ([5]; 1 ms pulses of 10 mM glutamate, n = 4): 191% ± 22%
τdes (current decay) with zinc [6]: 3.7 ± 0.1 ms
effect of zinc on desensitization rate [7]: no change
effect of zinc on glutamate currents ([7]; 10 mM glutamate, 100 ms): inhibited rather than potentiated
effect of zinc on glutamate currents [8]: inhibited
current amplitude with zinc, % of control amplitude [9]: 175% ± 9%
current with zinc (inhibited), % [10]: 40% ± 8%
current with zinc (potentiation), % [11]: 186% ± 13%
current with zinc (inhibition), % [12]: 44% ± 11%
current with zinc (inhibited), % [13]: 54% ± 6%
current with zinc (facilitated), % [14]: 197% ± 9%
current amplitude with zinc, % of control amplitude [15]: 177% ± 7%
current with zinc (inhibited), % [16]: 32% ± 9%
peak amplitude with zinc, % [17]: 45% ± 6%
effect of zinc on glutamate currents [18]: still potentiated
effect of zinc on glutamate currents [19]: still potentiated
effect of zinc on glutamate currents [20]: inhibited
current amplitude with zinc, % of control amplitude [21]: 33% ± 2%
effect of zinc on glutamate currents [22]: retained zinc potentiation
effect of zinc on glutamate currents [23]: potentiation
effect of zinc on glutamate currents [24]: did not potentiate
IC50 [25]: 1 to 2 µM
IC50 [26]: ~70 µM
affinity of zinc inhibition of NMDAR function [27]: low nanomolar
affinity of zinc inhibition of NMDAR function [28]: low micromolar

From PMC4132841 (Neuron, 2012)
